Test results published in patent US7485631B2, “Phorboxazole compounds and methods of their preparation” (The Trustees of the University of Pennsylvania, priority 2005, dated 2009).
Like-named read-outs stand apart in the source and are kept apart here.

What was measured:
[1] = other bond, K2CO3/18-crown-6, toluene, 25.0 °C
[2] = system: National Cancer Institute's (NCI) panel of 60 human tumor cell lines; details: mean over the entire NCI 60 human tumor cell line panel; cited from earlier work
[3] = system: human cancer cell lines BXP-3, MCF-3, F-268, NCl-H460, KM20L2, DU-145; assay: Cancer growth inhibition, average over the six human cancer cell line panel; type: cell-based; details: for GI50: Homo sapiens, average over six human cancer cell lines; for tumor cell growth inhibitory activity compared with (+)-phorboxazole A (in words): summary of the six cell line panel
Method: (§1) With (+)-phorboxazole A (XVIII) and the eight phorboxazole analogues in hand, biological evaluation against a diverse panel of human cancer cell lines was conducted in the laboratory of Professor George R. Pettit at the Cancer Research Institute of Arizona State University. Specifically, cancer growth inhibition efficacy was evaluated against the human cancer cell lines; BXP-3 (pancreatic), MCF-3 (breast), F-268 (CNS), NCl-H460 (non-small lung), KM20L2 (colon), and DU-145 (prostate) (Smith, et al. Org. Lett. 2005, 7, 4403; Smith, et al. Org. Lett. 2005, 8, 797).

KM20L2 (colon) = assay: Cancer growth inhibition, colon cancer cell line; type: cell-based; details: Homo sapiens, KM-20L2
Method: as §1

[4] = system: NCl-H460 (non-small lung); assay: Cancer growth inhibition, non-small lung cancer cell line; type: cell-based; details: Homo sapiens
Method: as §1

BXP-3 (pancreatic) = assay: Cancer growth inhibition, pancreatic cancer cell line; type: cell-based; details: Homo sapiens
Method: as §1

F-268 (CNS) = assay: Cancer growth inhibition, CNS cancer cell line; type: cell-based; details: Homo sapiens
Method: as §1

MCF-3 (breast) = assay: Cancer growth inhibition, breast cancer cell line; type: cell-based; details: Homo sapiens
Method: as §1

Question: Which ring closure, yield of all isomers ([1]; from C=C1C[C@H](C[C@@H]2CCO[C@H](c3coc(/C=C/C[C@H]4O[C@@H](/C(C)=C/I)[C@H](C)[C@@H](OC(=O)CP(=O)(OCC(F)(F)F)OCC(F)(F)F)[C@H]4C)n3)O2)O[C@@H](CC=O)C1, 0.74 mM, 2.0 h) does the source give for `C=C1C[C@@H]2C[C@@H]3CCO[C@@H](O3)c3coc(n3)/C=C/C[C@H]3O[C@@H](/C(C)=C/I)[C@H](C)[C@@H](OC(=O)/C=C\C[C@@H](C1)O2)[C@H]3C` here?
Answer: Its ring closure, yield of all isomers is 86%.

Question: For `C=C1C[C@@H]2C[C@@H]3C[C@@H](O[Si](C)(C)C(C)(C)C)C[C@@H](O3)c3coc(n3)/C=C/C[C@H]3O[C@@H](/C(C)=C/I)[C@H](C)[C@@H](OC(=O)/C=C\C[C@@H](C1)O2)[C@H]3C`, which ring closure, yield of all isomers ([1]; from C=C1C[C@H](C[C@@H]2C[C@@H](O[Si](C)(C)C(C)(C)C)C[C@H](c3coc(/C=C/C[C@H]4O[C@@H](/C(C)=C/I)[C@H](C)[C@@H](OC(=O)CP(=O)(OCC(F)(F)F)OCC(F)(F)F)[C@H]4C)n3)O2)O[C@@H](CC=O)C1, 0.706 mM, 3.0 h) is on record?
Answer: Its ring closure, yield of all isomers is 96%.

Question: With `C=C1C[C@@H]2C[C@H]3C[C@@H](O)C[C@H](O3)c3coc(n3)/C=C\C[C@H]3O[C@@H](/C(C)=C/c4coc(C[C@]5(O)C[C@H](OC)C[C@H]([C@H](O)/C=C(C)/C=C/[C@@H](C/C=C/Br)OC)O5)n4)[C@H](C)[C@@H](OC(=O)/C=C\C[C@@H](C1)O2)[C@H]3C` [(+)-Phorboxazole B, Phorboxazole B] as the molecule, how does the GI50 [2] read?
Answer: The GI50 was 1.58 nM.

Question: For `C=C1C[C@@H]2C[C@@H]3C[C@@H](O)C[C@@H](O3)c3coc(n3)/C=C/C[C@H]3O[C@@H](/C(C)=C/c4coc(C[C@]5(O)C[C@H](OC)C[C@H]([C@H](O)/C=C(C)/C=C/[C@@H](C/C=C/Br)OC)O5)n4)[C@H](C)[C@@H](OC(=O)/C=C\C[C@@H](C1)O2)[C@H]3C` [XVIII, Phorboxazole A, reference compound], which GI50 [2] is on record?
Answer: The GI50 was 1.58 nM.

Question: And the GI50 [3]?
Answer: The GI50 was 5 nM.

Question: For `C#CC[C@H](/C=C/C(C)=C/[C@@H](O)[C@H]1C[C@@H](OC)C[C@@](O)(Cc2nc(/C=C(\C)[C@@H]3O[C@@H]4C/C=C/c5nc(co5)[C@H]5C[C@H](O)C[C@@H](C[C@H]6CC(=C)C[C@H](C/C=C/C(=O)O[C@@H]([C@H]4C)[C@H]3C)O6)O5)co2)O1)OC` [XVIIaE, E-C(2-3)-C(45-46)-Alkynyl-Phorboxazole], which GI50 [3] is on record?
Answer: The GI50 was 281 nM.

Question: For `C#CC[C@H](/C=C/C(C)=C/[C@@H](O)[C@H]1C[C@@H](OC)C[C@@](O)(Cc2nc(/C=C(\C)[C@@H]3O[C@@H]4C/C=C/c5nc(co5)[C@H]5C[C@H](O)C[C@@H](C[C@H]6CC(=C)C[C@H](C/C=C\C(=O)O[C@@H]([C@H]4C)[C@H]3C)O6)O5)co2)O1)OC` [XVIIaZ, C(45-46)-Alkynyl-Phorboxazole], which GI50 [3] is on record?
Answer: The GI50 was 5.2 nM.

Question: And the “tumor cell growth inhibitory activity compared with (+)-phorboxazole A (in words)” value [3]?
Answer: The value was “activity comparable to that of (+)-phorboxazole A”.

Question: For `C=C1C[C@@H]2C[C@@H]3C[C@@H](O)C[C@@H](O3)c3coc(n3)/C=C/C[C@H]3O[C@@H](/C(C)=C/c4coc(C[C@]5(O)C[C@H](OC)C[C@H]([C@H](O)/C=C(C)/C=C/[C@@H](CCC)OC)O5)n4)[C@H](C)[C@@H](OC(=O)/C=C\C[C@@H](C1)O2)[C@H]3C` [XVIIb, C(45-46)-Alkyl-Phorboxazole], which GI50 (KM20L2 (colon)) is on record?
Answer: Its GI50 is 1.3 nM.

Question: And the GI50 [4]?
Answer: The GI50 was 1.6 nM.

Question: And the GI50 [3]?
Answer: Its GI50 is 3.1 nM.

Question: What about the “tumor cell growth inhibitory activity compared with (+)-phorboxazole A (in words)” value [3] of the same molecule?
Answer: Its value is “activity comparable to that of (+)-phorboxazole A”.

Question: What does the source list for `C=CC[C@H](/C=C/C(C)=C/[C@@H](O)[C@H]1C[C@@H](OC)C[C@@](O)(Cc2nc(/C=C(\C)[C@@H]3O[C@@H]4C/C=C/c5nc(co5)[C@H]5C[C@H](O)C[C@@H](C[C@H]6CC(=C)C[C@H](C/C=C\C(=O)O[C@@H]([C@H]4C)[C@H]3C)O6)O5)co2)O1)OC` [XVIIc, C(45-46)-Alkenyl-Phorboxazole]?
Answer: GI50 [3]: 4.1 nM; tumor cell growth inhibitory activity compared with (+)-phorboxazole A (in words) [3]: activity comparable to that of (+)-phorboxazole A

Question: With `C=C1C[C@@H]2C[C@@H]3C[C@@H](O)C[C@@H](O3)c3coc(n3)/C=C/C[C@H]3O[C@@H](/C(C)=C/c4coc(C[C@]5(O)C[C@H](OC)C[C@H]([C@H](O)/C=C(C)/C=C/[C@@H](C/C=C/Cl)OC)O5)n4)[C@H](C)[C@@H](OC(=O)/C=C\C[C@@H](C1)O2)[C@H]3C` [XVIId, C(45-46)-E-Chloroalkenyl-Phorboxazole] as the molecule, how does the GI50 (BXP-3 (pancreatic)) read?
Answer: The GI50 was 0.62 nM.

Question: And the GI50 (KM20L2 (colon))?
Answer: Its GI50 is 0.38 nM.

Question: And the GI50 [4]?
Answer: Its GI50 is 0.64 nM.

Question: What about the GI50 (F-268 (CNS)) of the same molecule?
Answer: The GI50 was 0.49 nM.

Question: And the “tumor cell growth inhibitory activity compared with (+)-phorboxazole A (in words)” value [3]?
Answer: Its value is “activity greater than that of (+)-phorboxazole A”.

Question: With `C=CC[C@H](/C=C/C(C)=C/[C@@H](O)[C@H]1C[C@@H](OC)C[C@](Cc2nc(/C=C(\C)[C@@H]3O[C@H](CCO)[C@H](C)[C@H](OCc4ccc(OC)c(OC)c4)[C@H]3C)co2)(OC)O1)OC` [XVIIe, C(45-46)-Alkenyl-C(22-26)-Central Tetrahydropyran Phorboxazole] as the molecule, how does the “activity across the entire cell line panel (in words)” value ([3]; six human cancer cell lines) read?
Answer: The value was “inactive”.

Question: Which GI50 [3] does the source give for `C#CC[C@H](/C=C/C(C)=C/[C@@H](O)[C@H]1C[C@@H](OC)C[C@@](O)(Cc2nc(/C=C(\C)[C@@H]3O[C@@H]4C/C=C/c5nc(co5)[C@H]5OCC[C@@H](C[C@H]6CC(=C)C[C@H](C/C=C/C(=O)O[C@@H]([C@H]4C)[C@H]3C)O6)O5)co2)O1)OC` [XVIIfE, E-C(2-3) C(11-15)-Acetal Alkynyl Phorboxazole] here?
Answer: Its GI50 is 944 nM.

Question: Which GI50 (MCF-3 (breast)) does the source give for `C#CC[C@H](/C=C/C(C)=C/[C@@H](O)[C@H]1C[C@@H](OC)C[C@@](O)(Cc2nc(/C=C(\C)[C@@H]3O[C@@H]4C/C=C/c5nc(co5)[C@H]5OCC[C@@H](C[C@H]6CC(=C)C[C@H](C/C=C\C(=O)O[C@@H]([C@H]4C)[C@H]3C)O6)O5)co2)O1)OC` [XVIIfZ, Z-C(2-3) C(11-15)-Acetal Alkynyl Phorboxazole] here?
Answer: The GI50 was 18.3 nM.

Question: And the GI50 (KM20L2 (colon))?
Answer: The GI50 was 11.8 nM.

Question: What about the GI50 [3] of the same molecule?
Answer: The GI50 was 34.6 nM.
